≈ marks a conversion by molar mass, not a printed value. Like-named read-outs stand apart in the source and are kept apart here.
Legend:
S. epidermidis (CoNS) = assay: Broth microdilution MIC, S. epidermidis (CoNS) (Table 7); assay type: cell-based
C. perfringens = assay type: cell-based; conditions: C. perfringens MMX 8351 ATCC 13124
S. hominis (CoNS) = assay: Broth microdilution MIC, S. hominis (CoNS) (Table 7); assay type: cell-based; conditions: S. hominis (CoNS) MMX 667 ATCC 27844
P. acnes = assay: Broth microdilution MIC, P. acnes (Table 7); assay type: cell-based
[1] = Un-inoculated solubility control plates, drug precipitation in test media; assay type: physicochemical; conditions: top concentration tested (64 μg/mL) in MHBII with blood and supplemented Brucella broth
P. anaerobius = assay: Broth microdilution MIC, P. anaerobius (Table 7); assay type: cell-based; conditions: P. anaerobius MMX 1208 ATCC 27337
Streptococci = assay: Broth microdilution MIC, Streptococci (Example 11, Table 7); assay type: cell-based
E. lenta = assay: Broth microdilution MIC, E. lenta (Table 7); assay type: cell-based; conditions: E. lenta MMX 1287 ATCC 43055
P. micros = assay: Broth microdilution MIC, P. micros (Table 7); assay type: cell-based; conditions: P. micros MMX 3546
Enterococci = assay type: cell-based
S. lugdenensis (CoNS) = assay: Broth microdilution MIC, S. lugdenensis (CoNS) (Table 7); assay type: cell-based; conditions: S. lugdenensis (CoNS) MMX 8724
S. haemolyticus (CoNS) = assay: Broth microdilution MIC, S. haemolyticus (CoNS) (Table 7); assay type: cell-based; conditions: S. haemolyticus (CoNS) MMX 529 ATCC 29970
Staphylococcus aureus = assay: microbe, parasite or virus in culture; assay type: cell-based
Clostridium difficile = assay: Broth microdilution MIC, C. difficile, anaerobic, supplemented Brucella Broth (Example 11, Table 7); assay type: cell-based

## CCCCCCCCCCNC1(C)CC(OC2C(Oc3c4cc5cc3Oc3ccc(cc3Cl)C(O)C3NC(=O)C(NC(=O)C5NC(=O)C(CC(N)=O)NC(=O)C(NC(=O)C(CC(C)C)NC)C(O)c5ccc(c(Cl)c5)O4)c4ccc(O)c(c4)-c4c(O)cc(O)cc4C(C(=O)O)NC3=O)OC(CO)C(O)C2O)OC(C)C1O (stereo not shown) [Compound 5, N-decyl vancomycin]
S. epidermidis (CoNS); S. epidermidis (CoNS) MMX 762, MRSE
  MIC: 0.12 µg/mL (≈ 0.0755 µM)
S. epidermidis (CoNS); S. epidermidis (CoNS) MMX 5145, MRSE
  MIC: 0.06 µg/mL (≈ 0.0377 µM)
C. perfringens
  MIC: 0.06 µg/mL (≈ 0.0377 µM)
S. hominis (CoNS)
  MIC: 0.06 µg/mL (≈ 0.0377 µM)
P. acnes; P. acnes MMX 7942 ATCC 6919
  MIC: 0.06 µg/mL (≈ 0.0377 µM)
P. acnes; P. acnes MMX 7946 ATCC 11827
  MIC: 0.06 µg/mL (≈ 0.0377 µM)
[1]
  drug precipitation: Some precipitation
P. anaerobius
  MIC: 0.03 µg/mL (≈ 0.0189 µM)
Streptococci; S. agalactiae MMX 427 ATCC 13813
  MIC: 0.03 µg/mL (≈ 0.0189 µM)
Streptococci; S. agalactiae MMX 4088
  MIC: 0.015 µg/mL (≈ 0.00944 µM)
Streptococci; S. agalactiae MMX 4115, erm^R
  MIC: 0.015 µg/mL (≈ 0.00944 µM)
Streptococci; S. anginosus (AGS) MMX 1201 ATCC 33397
  MIC: 0.03 µg/mL (≈ 0.0189 µM)
Streptococci; S. constellatus (AGS) MMX 5677
  MIC: 0.03 µg/mL (≈ 0.0189 µM)
Streptococci; S. dysgalactiae MMX 5121
  MIC: 0.015 µg/mL (≈ 0.00944 µM)
Streptococci; S. dysgalactiae MMX 5123
  MIC: 0.03 µg/mL (≈ 0.0189 µM)
Streptococci; S. dysgalactiae MMX 5124
  MIC: 0.015 µg/mL (≈ 0.00944 µM)
Streptococci; S. mitis (MGS) MMX 1205 ATCC 49456
  MIC: 0.03 µg/mL (≈ 0.0189 µM)
Streptococci; S. mitis (MGS) MMX 5798
  MIC: 0.015 µg/mL (≈ 0.00944 µM)
Streptococci; S. oralis (MGS) MMX 5821
  MIC: 0.03 µg/mL (≈ 0.0189 µM)
Streptococci; S. pneumoniae MMX 1195 ATCC 49619, PISP
  MIC: 0.015 µg/mL (≈ 0.00944 µM)
Streptococci; S. pyogenes MMX 946, ermR
  MIC: 0.015 µg/mL (≈ 0.00944 µM)
E. lenta
  MIC: 0.12 µg/mL (≈ 0.0755 µM)
P. micros
  MIC: 0.12 µg/mL (≈ 0.0755 µM)
Enterococci
  MIC: 0.06 µg/mL (≈ 0.0377 µM)
Enterococci; E. faecalis MMX 1086, VanA VRE
  MIC: 0.06 µg/mL (≈ 0.0377 µM)
Enterococci; E. faecium MMX 173, VanB VRE
  MIC: 0.12 µg/mL (≈ 0.0755 µM)
Enterococci; E. faecium MMX 851, VanA VRE
  MIC: 2 µg/mL (≈ 1.26 µM)
S. lugdenensis (CoNS)
  MIC: 0.03 µg/mL (≈ 0.0189 µM)
S. haemolyticus (CoNS)
  MIC: 0.06 µg/mL (≈ 0.0377 µM)
Staphylococcus aureus; MRSA strains (Table 5), […]
  RV40 activity as compared to Comparator: 9 ×
Staphylococcus aureus; S. aureus MMX 100 ATCC 29213, MSSA (quality control)
  MIC: 0.06 µg/mL (≈ 0.0377 µM)
Staphylococcus aureus; S. aureus MMX 1723, Mu50, VISA
  MIC: 0.5 µg/mL (≈ 0.315 µM)
Staphylococcus aureus; S. aureus MMX 2010, MRSA
  MIC: 0.06 µg/mL (≈ 0.0377 µM)
Staphylococcus aureus; S. aureus MMX 2011 ATCC BAA-1756, MRSA
  MIC: 0.12 µg/mL (≈ 0.0755 µM)
Staphylococcus aureus; S. aureus MMX 2124, VISA, DaptoNS
  MIC: 0.25 µg/mL (≈ 0.157 µM)
Staphylococcus aureus; S. aureus MMX 2490, MSSA
  MIC: 0.06 µg/mL (≈ 0.0377 µM)
Staphylococcus aureus; S. aureus MMX 3982, MRSA
  MIC: 0.06 µg/mL (≈ 0.0377 µM)
Staphylococcus aureus; S. aureus MMX 4658, VISA
  MIC: 0.5 µg/mL (≈ 0.315 µM)
Staphylococcus aureus; S. aureus MMX 4660, VISA
  MIC: 0.12 µg/mL (≈ 0.0755 µM)
Staphylococcus aureus; S. aureus MMX 4665, hVISA
  MIC: 0.5 µg/mL (≈ 0.315 µM)
Staphylococcus aureus; S. aureus MMX 4675 ATCC BAA-1556, MRSA
  MIC: 0.06 µg/mL (≈ 0.0377 µM)
Staphylococcus aureus; S. aureus MMX 5717 ATCC 33591, MRSA
  MIC: 0.06 µg/mL (≈ 0.0377 µM)
Staphylococcus aureus; S. aureus MMX 5985, MRSA
  MIC: 0.06 µg/mL (≈ 0.0377 µM)
Staphylococcus aureus; S. aureus MMX 5989, Mu3, hVISA
  MIC: 0.06 µg/mL (≈ 0.0377 µM)
Staphylococcus aureus; S. aureus MMX 5999, MRSA
  MIC: 0.06 µg/mL (≈ 0.0377 µM)
Staphylococcus aureus; S. aureus MMX 7899, MRSA
  MIC: 0.06 µg/mL (≈ 0.0377 µM)
Staphylococcus aureus; S. aureus MMX 7900, MRSA
  MIC: 0.12 µg/mL (≈ 0.0755 µM)
Staphylococcus aureus; S. aureus MMX 7901, MRSA
  MIC: 0.06 µg/mL (≈ 0.0377 µM)
Staphylococcus aureus; S. aureus MMX 7902, MRSA
  MIC: 0.25 µg/mL (≈ 0.157 µM)
Staphylococcus aureus; S. aureus MMX 7903, MRSA
  MIC: 0.06 µg/mL (≈ 0.0377 µM)
Staphylococcus aureus; S. aureus MMX 7907, MSSA
  MIC: 0.06 µg/mL (≈ 0.0377 µM)
Staphylococcus aureus; S. aureus MMX 7908, MSSA
  MIC: 0.12 µg/mL (≈ 0.0755 µM)
Clostridium difficile; C. difficile MMX 4381 ATCC 700057, toxinAB-negative
  MIC: 0.06 µg/mL (≈ 0.0377 µM)
Clostridium difficile; C. difficile MMX 4994 ATCC BAA-1805, ribotype 027
  MIC: 0.06 µg/mL (≈ 0.0377 µM)
Clostridium difficile; C. difficile MMX 5668 ATCC BAA-1870, NAP1/027
  MIC: 0.5 µg/mL (≈ 0.315 µM)

Source: patent US20200368312A1 (priority 2017, published 2020)
